Measured values from US20170342499A1, “GENOMIC CLASSIFIER THAT PREDICTS RESPONSE TO MULTI-KINASE INHIBITOR TREATMENT INTRODUCTION” (Centre Léon-Bérard, priority 2014, published 2017).

How the values were obtained:
[1] = tested on: CRC; assay: Response to conventional chemotherapy versus SUMSCAN prediction in CRC patients; type: in vivo, human; conditions: CRC patients (n = 21)
[2] = tested on: imatinib and sunitinib refractory gastrointestinal stromal tumors (GIST); conditions: cited from earlier work
[3] = tested on: pretreated metastatic colorectal cancer (mCRC); conditions: cited from earlier work

With CCc1c2c(nc3ccc(OC(=O)N4CCC(N5CCCCC5)CC4)cc13)-c1cc3c(c(=O)n1C2)COC(=O)[C@]3(O)CC [Irinotecan] the “patients resistant to the chemotherapy regimen, n (% of 21)” value (“patients resistant … (% of 21)” for short) ([1]; SUMSCAN Predicted Resistant) was 2 (9.5%), the “patients sensitive to the chemotherapy regimen, n (% of 21)” value (shortened to “patients sensitive … (% of 21)”) ([1]; SUMSCAN Predicted Resistant) was 7 (33.3%) and the “patients resistant … (% of 21)” value ([1]; SUMSCAN Predicted Sensitive) was 3 (14.3%). For the same compound, the “patients sensitive … (% of 21)” value ([1]; SUMSCAN Predicted Sensitive) was 9 (42.9%), the “patients resistant … (% of 21)” value ([1]; Total) was 5 (23.8%) and the “patients sensitive … (% of 21)” value ([1]; Total) was 16 (76.2%).
With O=C1[O][Pt]2([NH][C@@H]3CCCC[C@H]3[NH]2)[O]C1=O [Oxaliplatin] the “patients resistant … (% of 21)” value ([1]; SUMSCAN Predicted Resistant) was 2 (9.5%), the “patients sensitive … (% of 21)” value ([1]; SUMSCAN Predicted Resistant) was 7 (33.3%) and the “patients resistant … (% of 21)” value ([1]; SUMSCAN Predicted Sensitive) was 6 (28.6%). The “patients sensitive … (% of 21)” value ([1]; SUMSCAN Predicted Sensitive) was 6 (28.6%), the “patients resistant … (% of 21)” value ([1]; Total) was 8 (38.1%) and the “patients sensitive … (% of 21)” value ([1]; Total) was 13 (61.9%).
For CNC(=O)c1cc(Oc2ccc(NC(=O)Nc3ccc(Cl)c(C(F)(F)F)c3)c(F)c2)ccn1 [Regorafenib], the “antitumor activity by nature of the KIT/or PDGFRA mutation” value ([2]; GIST) is listed as “observed at the same level regardless of the nature of the KIT/or PDGFRA mutation”, the “improvement in PFS” value ([2]; imatinib and sunitinib refractory GIST) is listed as 4 months and the “improvement in PFS” value [3] is listed as 0.9 weeks.
